Assay results reported in patent US20070128217A1 (priority 2003, published 2007).

Assays:
[1] = tested on: antibodies in sera from SARS patients (sera 1a, 1b, 2, 6, 37, 62, London, SARS-yellow, SARS-green); type: binding, human
[2] = tested on: control sera (pooled serum of ten healthy LUMC hospital workers; commercial negative donor pooled serum from the Dutch bloodbank); type: binding, human
[3] = tested on: rabbit serum obtained by immunizing a rabbit with the SARS-CoV strain Frankfurt 1; type: binding; set-up: Binding of a rabbit serum to linear peptides / Binding of a rabbit serum to looped peptides / Rabbit serum linear peptides / Rabbit serum looped peptides / Binding of a rabbit serum to linear peptides of protein N of SARS-CoV Urbani (Rabbit serum linear peptides) / Binding of a rabbit serum to looped/cyclic peptides of protein N of SARS-CoV Urbani (Rabbit serum looped peptides): unit not given here

ALRLCAYCCNIVNVS
Binding of serum 1a to linear peptides of protein E of SARS-CoV Urbani [1]: 0.9 | Binding of serum 1a to looped/cyclic peptides of protein E of SARS-CoV Urbani [1]: 0.8 | Binding of serum 1b to linear peptides of protein E of SARS-CoV Urbani [1]: 0.8 | Binding of serum 1b to looped/cyclic peptides of protein E of SARS-CoV Urbani [1]: 0.8 | Binding of serum 2 to linear peptides of protein E of SARS-CoV Urbani [1]: 0.5 | Binding of serum 2 to looped/cyclic peptides of protein E of SARS-CoV Urbani [1]: 0.7 | Binding of serum 6 to linear peptides of protein E of SARS-CoV Urbani [1]: 0.7 | Binding of serum 6 to looped/cyclic peptides of protein E of SARS-CoV Urbani [1]: 0.7 | Binding of serum 37 to linear peptides of protein E of SARS-CoV Urbani [1]: 0.8 | Binding of serum 37 to looped/cyclic peptides of protein E of SARS-CoV Urbani [1]: 0.7 | Binding of serum 62 to linear peptides of protein E of SARS-CoV Urbani [1]: 0.7 | Binding of serum 62 to looped/cyclic peptides of protein E of SARS-CoV Urbani [1]: 0.8 | Binding of serum London to linear peptides of protein E of SARS-CoV Urbani [1]: 0.5 | Binding of serum London to looped/cyclic peptides of protein E of SARS-CoV Urbani [1]: 0.6 | Binding of serum SARS-green to linear peptides of protein E of SARS-CoV Urbani [1]: 0.5 | Binding of serum SARS-green to looped/cyclic peptides of protein E of SARS-CoV Urbani [1]: 0.6 | Binding of serum SARS-yellow to linear peptides of protein E of SARS-CoV Urbani [1]: 0.2 | Binding of serum SARS-yellow to looped/cyclic peptides of protein E of SARS-CoV Urbani [1]: 0.7 | Binding of Control Serum Blood-Bank to Looped peptides [2]: 1.1 | Binding of Control serum Blood-bank to linear peptides [2]: 0.8 | Binding of Control serum LUMC to linear peptides [2]: 0.5 | Binding of Control serum LUMC to looped peptides [2]: 0.8 | Binding of a rabbit serum to linear peptides [3]: 0.7 | Binding of a rabbit serum to looped peptides [3]: 0.4

FVSEETGTLIVNSVL
Binding of serum 1a to linear peptides of protein E of SARS-CoV Urbani [1]: 0.8 | Binding of serum 1a to looped/cyclic peptides of protein E of SARS-CoV Urbani [1]: 0.6 | Binding of serum 1b to linear peptides of protein E of SARS-CoV Urbani [1]: 0.6 | Binding of serum 1b to looped/cyclic peptides of protein E of SARS-CoV Urbani [1]: 0.6 | Binding of serum 2 to linear peptides of protein E of SARS-CoV Urbani [1]: 0.5 | Binding of serum 2 to looped/cyclic peptides of protein E of SARS-CoV Urbani [1]: 0.4 | Binding of serum 6 to linear peptides of protein E of SARS-CoV Urbani [1]: 0.4 | Binding of serum 6 to looped/cyclic peptides of protein E of SARS-CoV Urbani [1]: 0.5 | Binding of serum 37 to linear peptides of protein E of SARS-CoV Urbani [1]: 0.4 | Binding of serum 37 to looped/cyclic peptides of protein E of SARS-CoV Urbani [1]: 0.6 | Binding of serum 62 to linear peptides of protein E of SARS-CoV Urbani [1]: 0.5 | Binding of serum 62 to looped/cyclic peptides of protein E of SARS-CoV Urbani [1]: 0.8 | Binding of serum London to linear peptides of protein E of SARS-CoV Urbani [1]: 0.8 | Binding of serum London to looped/cyclic peptides of protein E of SARS-CoV Urbani [1]: 0.5 | Binding of serum SARS-green to linear peptides of protein E of SARS-CoV Urbani [1]: 0.6 | Binding of serum SARS-green to looped/cyclic peptides of protein E of SARS-CoV Urbani [1]: 0.6 | Binding of serum SARS-yellow to linear peptides of protein E of SARS-CoV Urbani [1]: 0.4 | Binding of serum SARS-yellow to looped/cyclic peptides of protein E of SARS-CoV Urbani [1]: 0.8 | Binding of Control Serum Blood-Bank to Looped peptides [2]: 0.8 | Binding of Control serum Blood-bank to linear peptides [2]: 0.7 | Binding of Control serum LUMC to linear peptides [2]: 1.1 | Binding of Control serum LUMC to looped peptides [2]: 0.7 | Binding of a rabbit serum to linear peptides [3]: 0.3 | Binding of a rabbit serum to looped peptides [3]: 0.1

ILTALRLCAYCCNIV
Binding of serum 1a to linear peptides of protein E of SARS-CoV Urbani [1]: 0.8 | Binding of serum 1a to looped/cyclic peptides of protein E of SARS-CoV Urbani [1]: 0.9 | Binding of serum 1b to linear peptides of protein E of SARS-CoV Urbani [1]: 0.7 | Binding of serum 1b to looped/cyclic peptides of protein E of SARS-CoV Urbani [1]: 0.6 | Binding of serum 2 to linear peptides of protein E of SARS-CoV Urbani [1]: 0.4 | Binding of serum 2 to looped/cyclic peptides of protein E of SARS-CoV Urbani [1]: 1.0 | Binding of serum 6 to linear peptides of protein E of SARS-CoV Urbani [1]: 0.8 | Binding of serum 6 to looped/cyclic peptides of protein E of SARS-CoV Urbani [1]: 0.7 | Binding of serum 37 to linear peptides of protein E of SARS-CoV Urbani [1]: 0.7 | Binding of serum 37 to looped/cyclic peptides of protein E of SARS-CoV Urbani [1]: 0.7 | Binding of serum 62 to linear peptides of protein E of SARS-CoV Urbani [1]: 0.8 | Binding of serum 62 to looped/cyclic peptides of protein E of SARS-CoV Urbani [1]: 0.8 | Binding of serum London to linear peptides of protein E of SARS-CoV Urbani [1]: 0.5 | Binding of serum London to looped/cyclic peptides of protein E of SARS-CoV Urbani [1]: 0.6 | Binding of serum SARS-green to linear peptides of protein E of SARS-CoV Urbani [1]: 0.5 | Binding of serum SARS-green to looped/cyclic peptides of protein E of SARS-CoV Urbani [1]: 0.6 | Binding of serum SARS-yellow to linear peptides of protein E of SARS-CoV Urbani [1]: 0.2 | Binding of serum SARS-yellow to looped/cyclic peptides of protein E of SARS-CoV Urbani [1]: 0.6 | Binding of Control Serum Blood-Bank to Looped peptides [2]: 0.8 | Binding of Control serum Blood-bank to linear peptides [2]: 0.8 | Binding of Control serum LUMC to linear peptides [2]: 0.4 | Binding of Control serum LUMC to looped peptides [2]: 0.8 | Binding of a rabbit serum to linear peptides [3]: 0.6 | Binding of a rabbit serum to looped peptides [3]: 0.6

VFLLVTLAILTALRL
Binding of serum 1a to linear peptides of protein E of SARS-CoV Urbani [1]: 0.7 | Binding of serum 1a to looped/cyclic peptides of protein E of SARS-CoV Urbani [1]: 0.4 | Binding of serum 1b to linear peptides of protein E of SARS-CoV Urbani [1]: 0.4 | Binding of serum 1b to looped/cyclic peptides of protein E of SARS-CoV Urbani [1]: 0.2 | Binding of serum 2 to linear peptides of protein E of SARS-CoV Urbani [1]: 0.4 | Binding of serum 2 to looped/cyclic peptides of protein E of SARS-CoV Urbani [1]: 0.4 | Binding of serum 6 to linear peptides of protein E of SARS-CoV Urbani [1]: 0.5 | Binding of serum 6 to looped/cyclic peptides of protein E of SARS-CoV Urbani [1]: 0.2 | Binding of serum 37 to linear peptides of protein E of SARS-CoV Urbani [1]: 0.6 | Binding of serum 37 to looped/cyclic peptides of protein E of SARS-CoV Urbani [1]: 0.4 | Binding of serum 62 to linear peptides of protein E of SARS-CoV Urbani [1]: 0.6 | Binding of serum 62 to looped/cyclic peptides of protein E of SARS-CoV Urbani [1]: 0.5 | Binding of serum London to linear peptides of protein E of SARS-CoV Urbani [1]: 0.5 | Binding of serum London to looped/cyclic peptides of protein E of SARS-CoV Urbani [1]: 0.3 | Binding of serum SARS-green to linear peptides of protein E of SARS-CoV Urbani [1]: 0.4 | Binding of serum SARS-green to looped/cyclic peptides of protein E of SARS-CoV Urbani [1]: 0.2 | Binding of serum SARS-yellow to linear peptides of protein E of SARS-CoV Urbani [1]: 0.0 | Binding of serum SARS-yellow to looped/cyclic peptides of protein E of SARS-CoV Urbani [1]: 0.5 | Binding of Control Serum Blood-Bank to Looped peptides [2]: 0.4 | Binding of Control serum Blood-bank to linear peptides [2]: 0.5 | Binding of Control serum LUMC to linear peptides [2]: 0.3 | Binding of Control serum LUMC to looped peptides [2]: 0.5 | Binding of a rabbit serum to linear peptides [3]: 0.4 | Binding of a rabbit serum to looped peptides [3]: 0.3

AFVVFLLVTLAILTA
Binding of serum 1a to linear peptides of protein E of SARS-CoV Urbani [1]: 0.8 | Binding of serum 1a to looped/cyclic peptides of protein E of SARS-CoV Urbani [1]: 0.5 | Binding of serum 1b to linear peptides of protein E of SARS-CoV Urbani [1]: 0.6 | Binding of serum 1b to looped/cyclic peptides of protein E of SARS-CoV Urbani [1]: 0.4 | Binding of serum 2 to linear peptides of protein E of SARS-CoV Urbani [1]: 0.4 | Binding of serum 2 to looped/cyclic peptides of protein E of SARS-CoV Urbani [1]: 0.4 | Binding of serum 6 to linear peptides of protein E of SARS-CoV Urbani [1]: 0.6 | Binding of serum 6 to looped/cyclic peptides of protein E of SARS-CoV Urbani [1]: 0.5 | Binding of serum 37 to linear peptides of protein E of SARS-CoV Urbani [1]: 0.7 | Binding of serum 37 to looped/cyclic peptides of protein E of SARS-CoV Urbani [1]: 0.5 | Binding of serum 62 to linear peptides of protein E of SARS-CoV Urbani [1]: 0.7 | Binding of serum 62 to looped/cyclic peptides of protein E of SARS-CoV Urbani [1]: 0.6 | Binding of serum London to linear peptides of protein E of SARS-CoV Urbani [1]: 0.6 | Binding of serum London to looped/cyclic peptides of protein E of SARS-CoV Urbani [1]: 0.4 | Binding of serum SARS-green to linear peptides of protein E of SARS-CoV Urbani [1]: 0.4 | Binding of serum SARS-green to looped/cyclic peptides of protein E of SARS-CoV Urbani [1]: 0.5 | Binding of serum SARS-yellow to linear peptides of protein E of SARS-CoV Urbani [1]: 0.2 | Binding of serum SARS-yellow to looped/cyclic peptides of protein E of SARS-CoV Urbani [1]: 0.5 | Binding of Control Serum Blood-Bank to Looped peptides [2]: 0.8 | Binding of Control serum Blood-bank to linear peptides [2]: 0.5 | Binding of Control serum LUMC to linear peptides [2]: 0.4 | Binding of Control serum LUMC to looped peptides [2]: 0.5 | Binding of a rabbit serum to linear peptides [3]: 0.7 | Binding of a rabbit serum to looped peptides [3]: 0.1
